Measurements taken from the supplement of paper PMC11061612.

Key:
[1] = compound: CC(=O)c1c(C)c2cnc(Nc3ccc(N4CCNCC4)cn3)nc2n(C2CCCC2)c1=O [Palbociclib]; conditions: max 10 µM
In short: (§1)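 Cancer cell lines were seeded in 1536-well plates in 7.5 μl DMEM/F12 or RPMI with 10% FBS, held 24 hours at 37°C and 5% CO2, then dosed for 72 hours (final DMSO typically 0.2%). Viability was read by CellTiter-Glo 2.0 luminescence and scaled between blank-well and DMSO-well means. The single-agent IC50 comes from dose responses fitted to a two-parameter logistic curve with a non-linear mixed effects model.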

[2] = compound: C=CCn1c(=O)c2cnc(Nc3ccc(N4CCN(C)CC4)cc3)nc2n1-c1cccc(C(C)(C)O)n1 [AZD1775]; conditions: max 3 µM
In short: as §1

[3] = compound: Cc1nc(-c2cn3c(n2)-c2ccc(-c4cnn(C(C)(C)C(N)=O)c4)cc2OCC3)n(C(C)C)n1 [Taselisib]; conditions: max 10 µM
In short: as §1

[4] = compound: COc1nnc2ccc(N3CCC(c4ccc(OCCN5CCN(C)C(=O)[C@H]5C)cc4)CC3)nn12 [AZD5153]; conditions: max 1 µM
In short: as §1

[5] = compound: COc1cc(Nc2ncc3c(n2)-c2ccc(Cl)cc2C(c2c(F)cccc2OC)=NC3)ccc1C(=O)O [Alisertib]; conditions: max 10 µM
In short: as §1

[6] = compound: CN(CC[C@H](CSC1=CC=CC=C1)NC2=C(C=C(C=C2)S(=O)(=O)NC(=O)C3=CC=C(C=C3)N4CCC(CC4)[C@H](C5=CC=CC=C5C6=CC=C(C=C6)Cl)O)S(=O)(=O)C(F)(F)F)CCO [AZD4320]; conditions: max 1 µM
In short: as §1

[7] = compound: C[C@@H](Nc1cc(F)cc(F)c1)c1cc(C(=O)N(C)C)cc2c(=O)cc(N3CCOCC3)oc12 [AZD8186]; conditions: max 10 µM
In short: as §1

[8] = compound: CC(=O)Nc1cccc(-n2c(=O)n(C3CC3)c(=O)c3c(Nc4ccc(I)cc4F)n(C)c(=O)c(C)c32)c1 [Trametinib]; conditions: max 1 µM
In short: as §1

[9] = compound: C[C@@H](Oc1cc(-c2cnn(C3CCNCC3)c2)cnc1N)c1c(Cl)ccc(F)c1Cl [Crizotinib]; conditions: max 10 µM
In short: as §1

[10] = compound: C[C@@H]1COCCN1C2=NC(=NC(=C2)C3(CC3)[S@](=N)(=O)C)C4=C5C=CNC5=NC=C4 [AZD6738]; conditions: max 10 µM
In short: as §1

[11] = compound: N#Cc1cnc(Nc2cc(NC[C@H]3CNCCO3)c(C(F)(F)F)cn2)cn1 [SRA737]; conditions: max 10 µM
In short: as §1

[12] = compound: O=C(c1cc(Cc2n[nH]c(=O)c3ccccc23)ccc1F)N1CCN(C(=O)C2CC2)CC1 [Olaparib]; conditions: max 10 µM
In short: as §1

[13] = compound: CC1=C(C(=CC=C1)Cl)NC(=O)C2=CN=C(S2)NC3=CC(=NC(=N3)C)N4CCN(CC4)CCO [Dasatinib]; conditions: max 2 µM
In short: as §1

[14] = compound: O=C(Nc1ccc2[nH]nc(-c3ccncc3)c2c1)[C@@H]1CCN(CC(=O)N2CCN(c3ccc(-c4ncccn4)cc3)CC2)C1; conditions: max 5 µM
In short: as §1

[15] = compound: Cc1cc2ncnn2cc1Nc1ncc2c(n1)n(C1CCOCC1)c(=O)n2C [AZD7648]; conditions: max 10 µM
In short: as §1

[16] = compound: NC1(c2ccc(-c3nc4ccn5c(=O)[nH]nc5c4cc3-c3ccccc3)cc2)CCC1 [MK-2206]; conditions: max 10 µM
In short: as §1

[17] = compound: Nc1ccn([C@@H]2O[C@H](CO)[C@@H](O)C2(F)F)c(=O)n1 [Gemcitabine]; conditions: max 0.3 µM
In short: as §1

[18] = compound: CC1=CN2[C@@H](C1)C=NC3=CC(=C(C=C3C2=O)OC)OCCCCCOC4=C(C=C5C(=C4)N=C[C@@H]6CC(=CN6C5=O)C)OC [SG3199]; conditions: max 0.001 µM
In short: as §1

[19] = compound: COc1cc2ncnc(Nc3ccc(F)c(Cl)c3)c2cc1OCCCN1CCOCC1 [Gefitinib]; conditions: max 10 µM
In short: as §1

[20] = compound: CC(C)n1c(=O)n(C)c2cnc3cc(F)c(-c4ccc(OCCCN5CCCCC5)nc4)cc3c21 [AZD1390]; conditions: max 0.3 µM
In short: as §1

[21] = compound: Cc1c2c(nn1C)CSCc1cc(n(C)n1)CSc1cc(c3ccccc3c1)OCCCc1c(C(=O)O)n(C)c3c-2c(Cl)ccc13 [AZD5991]; conditions: max 1 µM
In short: as §1

[22] = compound: C1CC(C1)(C(=O)[O-])C(=O)[O-].N.N.[Pt+2] [Carboplatin]; conditions: max 10 µM
In short: as §1

[23] = compound: CS(=O)(=O)CCNCc1ccc(-c2ccc3ncnc(Nc4ccc(OCc5cccc(F)c5)c(Cl)c4)c3c2)o1 [Lapatinib]; conditions: max 10 µM
In short: as §1

[24] = compound: COc1cc([C@@H]2c3cc4c(cc3[C@@H](O[C@@H]3O[C@@H]5CO[C@@H](C)O[C@H]5[C@H](O)[C@H]3O)[C@H]3COC(=O)[C@H]23)OCO4)cc(OC)c1O [Etoposide]; conditions: max 10 µM
In short: as §1

[25] = compound: COc1cccc2c1C(=O)c1c(O)c3c(c(O)c1C2=O)C[C@@](O)(C(=O)CO)C[C@@H]3O[C@H]1C[C@H](N)[C@H](O)[C@H](C)O1 [Doxorubicin]; conditions: max 1 µM
In short: as §1

[26] = compound: CC1(C)CCC(CN2CCN(c3ccc(C(=O)NS(=O)(=O)c4ccc(NCC5CCOCC5)c([N+](=O)[O-])c4)c(Oc4cnc5[nH]ccc5c4)c3)CC2)=C(c2ccc(Cl)cc2)C1 [Venetoclax]; conditions: max 1 µM
In short: as §1

[27] = compound: O=c1[nH]cc(F)c(=O)[nH]1 [5-Fluorouracil]; conditions: max 20 µM
In short: as §1

[28] = compound: Cn1cnc2c(F)c(Nc3ccc(Br)cc3Cl)c(C(=O)NOCCO)cc21 [Selumetinib]; conditions: max 10 µM
In short: as §1

[29] = compound: CCc1c2c(nc3ccc(O)cc13)-c1cc3c(c(=O)n1C2)COC(=O)[C@]3(O)CC [SN-38]; conditions: max 0.3 µM
In short: as §1

[30] = compound: CC(=O)O[C@H]1C(=O)[C@@]2(C)[C@H]([C@H](OC(=O)c3ccccc3)[C@]3(O)C[C@H](OC(=O)[C@H](O)[C@@H](NC(=O)c4ccccc4)c4ccccc4)C(C)=C1C3(C)C)[C@]1(OC(C)=O)CO[C@@H]1C[C@@H]2O [Paclitaxel]; conditions: max 3 µM
In short: as §1

[31] = compound: C1CN(CCC1(C(=O)N[C@@H](CCO)C2=CC=C(C=C2)Cl)N)C3=NC=NC4=C3C=CN4 [AZD5363]; conditions: max 10 µM
In short: as §1

[32] = compound: C[C@@H](c1ccc2nccn2c1)n1nnc2ncc(-c3cnn(C)c3)nc21 [Savolitinib]; conditions: max 1 µM
In short: as §1

[33] = compound: COc1cccc(OCCCN)c1-c1cc(Nc2cnc(C#N)cn2)n[nH]1 [Prexasertib]; conditions: max 1 µM
In short: as §1

[34] = compound: CCN(CCO)CCCOc1ccc2c(Nc3cc(CC(=O)Nc4cccc(F)c4)[nH]n3)ncnc2c1 [AZD2811]; conditions: max 1 µM
In short: as §1

[35] = compound: CN(C)CCCOc1ccc(-c2ccc3ncc4c(c3c2)n(C2CCOCC2)c(=O)n4C)cn1 [AZD0156]; conditions: max 3 µM
In short: as §1

Row | Cell Line | IC50, cell viability 72 h [1] | IC50, cell viability 72 h [2] | IC50, cell viability 72 h [3] | IC50, cell viability 72 h [4] | IC50, cell viability 72 h [5] | IC50, cell viability 72 h [6] | IC50, cell viability 72 h [7] | IC50, cell viability 72 h [8] | IC50, cell viability 72 h [9] | IC50, cell viability 72 h [10] | IC50, cell viability 72 h [11] | IC50, cell viability 72 h [12] | IC50, cell viability 72 h [13] | IC50, cell viability 72 h [14] | IC50, cell viability 72 h [15] | IC50, cell viability 72 h [16] | IC50, cell viability 72 h [17] | IC50, cell viability 72 h [18] | IC50, cell viability 72 h [19] | IC50, cell viability 72 h [20] | IC50, cell viability 72 h [21] | IC50, cell viability 72 h [22] | IC50, cell viability 72 h [23] | IC50, cell viability 72 h [24] | IC50, cell viability 72 h [25] | IC50, cell viability 72 h [26] | IC50, cell viability 72 h [27] | IC50, cell viability 72 h [28] | IC50, cell viability 72 h [29] | IC50, cell viability 72 h [30] | IC50, cell viability 72 h [31] | IC50, cell viability 72 h [32] | IC50, cell viability 72 h [33] | IC50, cell viability 72 h [34] | IC50, cell viability 72 h [35]
1 | DMS-114 (Small Cell Lung Carcinoma) | > 10000 nM | > 3000 nM | 5190 nM | 688 nM | > 10000 nM | > 1000 nM | > 10000 nM | > 1000 nM | > 10000 nM | > 10000 nM | > 10000 nM | > 10000 nM | > 2000 nM | > 5000 nM | > 10000 nM | > 10000 nM | > 300 nM | > 1 nM | > 10000 nM | > 300 nM | 782 nM | > 10000 nM | > 10000 nM | > 10000 nM | > 1000 nM | > 1000 nM | > 20000 nM | > 10000 nM | 230 nM | 132 nM | > 10000 nM | > 1000 nM | > 1000 nM | > 1000 nM | > 3000 nM
2 | KU812 (Chronic Myelogenous Leukemia) | 4050 nM | 298 nM | > 10000 nM | 36.6 nM | 701 nM | 267 nM | > 10000 nM | 10.5 nM | 260 nM | 2150 nM | 9860 nM | > 10000 nM | < 2 nM | 160 nM | > 10000 nM | 4070 nM | 27.1 nM | > 1 nM | > 10000 nM | > 300 nM | 235 nM | > 10000 nM | > 10000 nM | 9690 nM | 567 nM | > 1000 nM | > 20000 nM | 260 nM | 37.4 nM | 17.6 nM | > 10000 nM | > 1000 nM | 20.5 nM | 471 nM | > 3000 nM
3 | KYSE-270 (Esophageal Squamous Cell Carcinoma) | > 10000 nM | 665 nM | 3470 nM | > 1000 nM | > 10000 nM | > 1000 nM | > 10000 nM | > 1000 nM | > 10000 nM | 4160 nM | 1400 nM | > 10000 nM | 506 nM | > 5000 nM | > 10000 nM | > 10000 nM | 35.9 nM | > 1 nM | 8190 nM | > 300 nM | > 1000 nM | > 10000 nM | 7840 nM | 4580 nM | 424 nM | > 1000 nM | 14900 nM | > 10000 nM | 10.7 nM | 39.4 nM | > 10000 nM | > 1000 nM | 8.06 nM | > 1000 nM | > 3000 nM
